Data reported in patent publication US8546343B2, “Aminoglycoside antibiotics targeting bacterial 16S ribosomal RNA” (Eidgenoessische Technische Hochschule Zurich, priority 2007, dated 2013).
Converted amounts (≈) assume the structure as drawn.

Legend:
[1] = test system: M. smegmatis ΔrrnB 1408G (16S rRNA position 1408 G, eukaryotic cytosolic ribosomes); assay: MIC, recombinant M. smegmatis with mutant ribosomes 1408G; format: cell-based, Mycobacterium smegmatis; conditions: M. smegmatis ΔrrnB 1408G mutant ribosomes; 72 h at 37° C.
Text: (§1) The strain used for introduction/selection of mutational alterations was a genetically modified derivative of Mycobacterium smegmatis carrying a single functional chromosomal rRNA operon (Sander et al. Mol. Microbiol. 1996, 22: 841-848). This strain, termed M. smegmatis rrn^−, allowed for the selection of mutational rRNA gene alterations using a plasmid carrying the rRNA gene with the respective mutational alteration.)
(§2) The rRNA gene carried on the plasmid encodes either the complete rRNA operon (Prammananan et al. Antimicrob. Agents Chemother. 1999, 43: 447-453) or a non-functional rRNA gene fragment of approximately 1.0 kb (Pfister et al. Antimicrob. Agents Chemother. 2003, 47: 1496-1502). PCR-mutagenesis in vitro was used to generate the mutagenized rRNA gene fragment. In the case of a partial rRNA gene fragment the mutagenized rRNA gene fragment was cloned into vectors pMV261 or pMV361 (Sander et al. Mol. Microbiol. 2002, 46: 1295-1304; Pfister et al. Antimicrob. Agents Chemother. 2003, 47: 1496-1502) to result in vectors carrying a partial rRNA gene fragment of approximately 1.0 kb with the mutational alteration introduced. In the case of plasmids carrying the complete rRNA operon the mutagenized rRNA gene fragment obtained by PCR was cloned into vectors pMV361 rRNA or pMV261 rRNA using appropriate restriction sites (Prammananan et al. Antimicrob. Agents Chemother. 1999, 43: 447-453). Vectors pMV361 rRNA and pMV261 rRNA carried a complete copy of the rRNA operon from M. smegmatis (Sander et al. Mol. Microbiol. 1997, 26: 469-480). Introduction of mutations into the plasmid encoded rRNA was confirmed by sequencing.
(§3) The single rRNA allelic derivative of M. smegmatis, i.e. M. smegmatis rrn, was used for transformation of the plasmids. The strain was made electro-competent and transformed according to standard techniques and as described previously (Sander et al. Mol. Microbiol. 1997, 26: 469-484). Following primary selection, the plasmid-encoded mutational rRNA gene alteration was transferred into the single chromosomal rRNA operon by means of RecA-mediated homologous recombination (Prammananan at al. Antimicrob. Agents Chemother. 1999, 43: 447-453). Introduction of the mutational rRNA gene alteration into the single functional chromosomal rRNA operon by gene conversion was confirmed by sequence determination.
(§4) Ribosomal drug susceptibility was studied by determining the minimal inhibitory concentrations, as described in detail in Pfister et al. 2003 and 2005 (see above).
(§5) The recombinants carrying the respective mutational alterations in the functional rRNA operon were colony-purified and subjected to determinations of minimal inhibitory concentrations (MIC) to determine ribosomal drug susceptibility. Cultures from single colonies were grown in LB medium supplemented with 0.05% Tween 80 and used for MIC tests in a microtiter plate format. Starting cultures contained 200 μl of bacterial cells at an optical density of 0.025 at 600 nm, and the respective drug was added in twofold series of dilution.
(§6) Key nucleotides which distinguish the prokaryotic from the eukaryotic decoding site are 16S rRNA positions 1408 (bacterial ribosome: A, eukaryotic cytosolic ribosomes: G) and 1491 (bacterial ribosomes: G, eukaryotic cytosolic ribosomes: A, eukaryotic mitochondrial ribosome: C).

AG006 E. coli BM13 = assay: Standard MIC assay, AG006; format: cell-based, Escherichia coli
Experimental: (§7) Selected compounds of the present invention were tested for antibiotic susceptibility using clinical isolates of Staphylococci, Enterococci and Escherichia coli as well as strains carrying defined resistance determinants and compared to well known antibiotics of the state of the art. Drug susceptibility was determined in standard MIC assays, i.e. by determination of the minimal drug concentration required to inhibit bacterial growth in vitro.

[2] = test system: M. smegmatis ΔrrnB 1491C (16S rRNA position 1491 C, eukaryotic mitochondrial ribosome); assay: MIC, recombinant M. smegmatis with mutant ribosomes 1491C; format: cell-based, Mycobacterium smegmatis; conditions: M. smegmatis ΔrrnB 1491C mutant ribosomes; 72 h at 37° C.
Text: as §1, §2, §3, §4, §5, §6

[3] = test system: AG007 E. coli BM13 (AAC3); assay: Standard MIC assay, AG007; format: cell-based, Escherichia coli; conditions: E. coli BM13 (AAC3)
Experimental: as §7

[4] = test system: M. smegmatis ΔrrnB (bacterial ribosomes); assay: MIC, recombinant M. smegmatis with bacterial (wild-type) ribosomes; format: cell-based, Mycobacterium smegmatis; conditions: 72 h at 37° C.
Text: as §1, §2, §3, §4, §5, §6

[5] = test system: AG015 S. aureus BM3002 (ANT4′); assay: Standard MIC assay, AG015; format: cell-based, Staphylococcus aureus; conditions: for Minimal inhibitory concentrations AG015: S. aureus BM3002 (ANT4′)
Experimental: as §7

[6] = test system: M. smegmatis ΔrrnB 1491A (16S rRNA position 1491 A, eukaryotic cytosolic ribosomes); assay: MIC, recombinant M. smegmatis with mutant ribosomes 1491A; format: cell-based, Mycobacterium smegmatis; conditions: M. smegmatis ΔrrnB 1491A mutant ribosomes; 72 h at 37° C.
Text: as §1, §2, §3, §4, §5, §6

[7] = test system: AG009 E. coli BM13 AAC(6′)-1B; assay: Standard MIC assay, AG009; format: cell-based, Escherichia coli; conditions: E. coli BM13 AAC(6′)-1B
Experimental: as §7

[8] = test system: AG008 E. coli BM13 (ANT2″); assay: Standard MIC assay, AG008; format: cell-based, Escherichia coli; conditions: E. coli BM13 (ANT2″)
Experimental: as §7

[9] = test system: AG013 Staph. epi. clinical isolate; assay: Standard MIC assay, AG013; format: cell-based, Staphylococcus epidermidis
Experimental: as §7

[10] = test system: AG001 E. coli clinical isolate; assay: Standard MIC assay, AG001; format: cell-based, Escherichia coli
Experimental: as §7

AG017 E. faecalis JH2-2 = assay: Standard MIC assay, AG017; format: cell-based, Enterococcus faecalis
Experimental: as §7

[11] = test system: AG004 E. coli clinical isolate; assay: Standard MIC assay, AG004; format: cell-based, Escherichia coli
Experimental: as §7

[12] = test system: AG019 E. faecalis JH2-2 (APH2″ AAC6′); assay: Standard MIC assay, AG019; format: cell-based, Enterococcus faecalis; conditions: for Minimal inhibitory concentrations AG019: E. faecalis JH2-2 (APH2″ AAC6′)
Experimental: as §7

[13] = test system: AG011 Staph. aureus clinical isolate; assay: Standard MIC assay, AG011; format: cell-based, Staphylococcus aureus
Experimental: as §7

[14] = test system: AG014 Staph. epi. clinical isolate; assay: Standard MIC assay, AG014; format: cell-based, Staphylococcus epidermidis
Experimental: as §7

AG016 S. aureus BM3002 = assay: Standard MIC assay, AG016; format: cell-based, Staphylococcus aureus
Experimental: as §7

Compound | minimal inhibitory concentrations ΔrrnB 1408G [1] [µg/mL] | minimal inhibitory concentrations ΔrrnB 1491C [2] | minimal inhibitory concentrations ΔrrnB [4] [µg/mL] | Minimal inhibitory concentrations AG015 [5] [µg/mL] | minimal inhibitory concentrations ΔrrnB 1491A [6] [µg/mL] | Minimal inhibitory concentrations AG013 [9] [µg/mL] | Minimal inhibitory concentrations AG017 (AG017 E. faecalis JH2-2) [µg/mL] | Minimal inhibitory concentrations AG019 [12] [µg/mL] | Minimal inhibitory concentrations AG011 [13] [µg/mL] | Minimal inhibitory concentrations AG014 [14] [µg/mL] | Minimal inhibitory concentrations AG016 (AG016 S. aureus BM3002) [µg/mL] | further results
NC[C@@H]1O[C@H](O[C@H]2[C@@H](O)[C@H](O[C@@H]3[C@@H](O)[C@H](N)C[C@H](N)[C@H]3O[C@H]3O[C@@H]4CO[C@@H](c5ccc(Cl)cc5)O[C@H]4[C@H](O)[C@H]3N)O[C@@H]2CO)[C@H](N)[C@@H](O)[C@@H]1O [Compound 5.8, 4′,6′-O-p-Chlorobenzylideneparomomycin] | >512 | >512 µg/mL | 4 | 16 (≈ 21.7 µM) | >512 | 8 (≈ 10.8 µM) | 16 to 32 | 64 (≈ 86.7 µM) | 4 to 8 | 8 to 16 | 8 (≈ 10.8 µM) | Minimal inhibitory concentrations AG006 (AG006 E. coli BM13): 64 µg/mL (≈ 86.7 µM); Minimal inhibitory concentrations AG007 [3]: 64 µg/mL (≈ 86.7 µM); Minimal inhibitory concentrations AG009 [7]: 64 µg/mL (≈ 86.7 µM); Minimal inhibitory concentrations AG008 [8]: 64 µg/mL (≈ 86.7 µM); Minimal inhibitory concentrations AG001 [10]: 32 µg/mL (≈ 43.3 µM); Minimal inhibitory concentrations AG004 [11]: 16 to 32 µg/mL
NC[C@@H]1O[C@H](O[C@H]2[C@@H](O)[C@H](O[C@@H]3[C@@H](O)[C@H](N)C[C@H](N)[C@H]3O[C@H]3O[C@H](CO)[C@@H](O)[C@H](O)[C@H]3N)O[C@@H]2CO)[C@H](N)[C@@H](O)[C@@H]1O [Paromomycin, paromomycin, reference compound] | 64 | ≧512 μg/ml | 1 |  | 64 |  |  |  |  |  |  | MIC ([5]; Staphylococcus aureus, read-out: Minimal inhibitory concentrations AG015): > 256 µg/mL; MIC ([9]; Staphylococcus epidermidis, read-out: Minimal inhibitory concentrations AG013): ≥ 256 µg/mL; MIC (AG017 E. faecalis JH2-2; Enterococcus faecalis, read-out: Minimal inhibitory concentrations AG017): 128 to 256 µg/mL (≈ 208 to 416 µM); MIC ([12]; Enterococcus faecalis, read-out: Minimal inhibitory concentrations AG019): > 256 µg/mL; MIC ([13]; Staphylococcus aureus, read-out: Minimal inhibitory concentrations AG011): 8 µg/mL (≈ 13 µM); MIC ([14]; Staphylococcus epidermidis, read-out: Minimal inhibitory concentrations AG014): ≥ 256 µg/mL; MIC (AG016 S. aureus BM3002; Staphylococcus aureus, read-out: Minimal inhibitory concentrations AG016): 2 to 4 µg/mL (≈ 3.25 to 6.5 µM)
Neomycin [reference compound] |  |  |  | 128 |  | 64 to 128 | 64 | >256 | 4 | 32 | 1 to 2 | 
